According to patent EP2308883A1, “New derivatives of thieno[2,3-b]pyridine and 5,6,7,8 tetrahydrothieno[2,3 b]quinoline in particular useful in the treatment of malaria” (priority 2009, dated 2011):

Legend:
[1] = tested on: panel of 22 purified kinases, including 4 P. falciparum kinases; assay: Small panel of 22 purified kinases; type: biochemical; details: at concentrations up to 10 µM
Protocol: (§1) Compound No. 22 was also tested on a small panel of 22 purified kinases, including 4 P. falciparum kinases. […] To complement this selectivity study, compound No 22 was run on two large scale selectivity panels: Prof. P. Cohen's kinase selectivity panel (76 kinases) (Bain J, Plater L, Elliott M, Shapiro N, Hastie CJ, McLauchlan H et al. (2007). The selectivity of protein kinase inhibitors: a further update. Biochem J. 408: 297-315.) and the Ambit Biosciences interaction assay (402 kinases) (Karaman MW, Herrgard S, Treiber DK, Gallant P, Atteridge CE, Campbell BT, Chan KW, Ciceri P, Davis MI, Edeen PT, Faraoni R, Floyd M, Hunt JP, Lockhart DJ, Milanov ZV, Morrison MJ, Pallares G, Patel HK, Pritchard S, Wodicka LM, Zarrinkar PP. A quantitative analysis of kinase inhibitor selectivity. Nat Biotechnol. 2008 Jan;26(1):127-32.).

mammalian kinases = details: compared with roscovitine and staurosporine
Protocol: as §1

## N#Cc1c(N)nc2sc(C(=O)c3cccc(Cl)c3)c(N)c2c1-c1ccccc1Cl [Compound 22, 3,6-diamino-2-(3-chlorobenzoyl)-4-(2-chlorophenyl)thieno[2,3-b]pyridine-5-carbonitrile]
[1]
  inhibition of kinases of the panel besides PfGSK-3: no kinase was found to be inhibited
Mammalian kinases
  inhibition of mammalian kinases in selectivity panels: very poor, if at all, inhibitor of mammalian kinases
